Results taken from article PMC10544575, “Inhibitory mechanism of vortioxetine on CYP450 enzymes in human and rat liver microsomes” (Frontiers in Pharmacology, 2023).
pIC50, pKi: −log10 of the molar value. “Also recorded” adds a separate entry of the source. Where two headings read alike, the source gives them in different places.

What was measured:
Format in all cases: in vitro ADME
Design in all cases: 0.20 mg/mL HLMs; from tissue; host or cells: human liver microsomes
CYP2D6 [1] = target: T1, CYP2D6 (Homo sapiens, UniProt P10635); assay: IC50 of vortioxetine on CYP2D6 (dextromethorphan) in HLMs
T1 sequence (P10635 whole entry): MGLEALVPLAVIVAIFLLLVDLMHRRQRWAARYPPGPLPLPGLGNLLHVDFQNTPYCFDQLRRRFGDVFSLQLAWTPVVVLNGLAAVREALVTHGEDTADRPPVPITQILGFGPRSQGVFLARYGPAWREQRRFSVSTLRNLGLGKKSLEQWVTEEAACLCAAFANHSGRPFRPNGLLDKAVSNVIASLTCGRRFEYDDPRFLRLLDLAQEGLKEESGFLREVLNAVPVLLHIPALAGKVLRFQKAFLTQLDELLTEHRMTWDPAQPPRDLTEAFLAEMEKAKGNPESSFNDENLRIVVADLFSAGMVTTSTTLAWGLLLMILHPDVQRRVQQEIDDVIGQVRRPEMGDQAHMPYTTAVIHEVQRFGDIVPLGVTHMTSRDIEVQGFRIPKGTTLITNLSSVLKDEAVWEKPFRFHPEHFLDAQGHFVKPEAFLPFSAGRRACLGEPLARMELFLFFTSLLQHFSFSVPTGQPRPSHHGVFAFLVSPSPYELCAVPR
Description: (§1) The components of the incubation system were as follows: 0.20 mg/mL HLMs or 0.20 mg/mL RLMs, 0.1 M Tris-HCl, vortioxetine, and the probe substrates of each enzyme. In the study of Km’s (Michaelis–Menten constant) experiment, midazolam (1, 2, 5, 10, 20, 50 and 100 μM in HLMs and RLMs) corresponded to CYP3A4/3A; bupropion (10, 20, 50, 100, 200, 500, 1,000 and 2000 μM in HLMs; 1, 2, 5, 10, 20, 50, 100 and 200 μM in RLMs) corresponded to CYP2B6/2B; amodiaquine (5, 10, 20, 50, 100 and 200 μM in HLMs; 10, 20, 50, 100, 200, 500 μM in RLMs) corresponded to CYP2C8/CYP2C-1; losartan (1, 2, 5, 10, 20, 50, 100, 200 μM in HLMs; 10, 20, 50, 100, 200, 500 and 1,000 μM in RLMs) corresponded to CYP2C9/CYP2C-2; mephenytoin (20, 50, 100, 200, 500 and 1,000 μM in HLMs; 5, 10, 20, 50, 100, 200, 500 and 1,000 μM in RLMs) corresponded to CYP2C19/CYP2C-3; and dextromethorphan (1, 2, 5, 10, 20, 50 and 100 μM in HLMs and RLMs) corresponded to CYP2D6/CYP2D. […]
(§2) All experiments results were detected by UPLC-MS/MS, which equipped with a Waters Acquity UPLC system (Milford, MA, United States) and a Waters Xevo TQ-S triple quadrupole tandem mass spectrometer with an electrospray ionization source (Milford, MA, United States). […]
(§3) IC50 values and enzyme kinetic parameters were calculated by Graphpad Prism 6.0 (GraphPad software Inc., CA, United States). […] Data for each experiment were expressed as mean ± SD (n = 3).

CYP2B6 = target: T2, CYP2B6 (Homo sapiens, UniProt P20813); assay: Reversible inhibition kinetics (Lineweaver-Burk), CYP2B6 in HLMs; conditions: bupropion
T2 sequence (P20813 1-491): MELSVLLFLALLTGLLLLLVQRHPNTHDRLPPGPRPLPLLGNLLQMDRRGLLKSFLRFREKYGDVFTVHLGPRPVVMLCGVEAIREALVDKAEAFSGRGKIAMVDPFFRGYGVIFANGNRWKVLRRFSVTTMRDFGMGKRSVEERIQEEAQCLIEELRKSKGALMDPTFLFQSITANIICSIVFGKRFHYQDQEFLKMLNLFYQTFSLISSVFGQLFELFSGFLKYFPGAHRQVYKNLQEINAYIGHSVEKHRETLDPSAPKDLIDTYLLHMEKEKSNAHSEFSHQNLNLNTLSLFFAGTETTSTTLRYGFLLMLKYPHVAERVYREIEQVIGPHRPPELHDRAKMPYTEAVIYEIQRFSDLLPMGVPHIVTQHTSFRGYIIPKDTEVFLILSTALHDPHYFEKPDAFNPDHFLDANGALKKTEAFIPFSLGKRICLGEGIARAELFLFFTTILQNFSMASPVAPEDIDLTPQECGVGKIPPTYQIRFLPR
Description: (§4) The components of the incubation system were as follows: 0.20 mg/mL HLMs or 0.20 mg/mL RLMs, 0.1 M Tris-HCl, vortioxetine, and the probe substrates of each enzyme. In the study of Km’s (Michaelis–Menten constant) experiment, midazolam (1, 2, 5, 10, 20, 50 and 100 μM in HLMs and RLMs) corresponded to CYP3A4/3A; bupropion (10, 20, 50, 100, 200, 500, 1,000 and 2000 μM in HLMs; 1, 2, 5, 10, 20, 50, 100 and 200 μM in RLMs) corresponded to CYP2B6/2B; amodiaquine (5, 10, 20, 50, 100 and 200 μM in HLMs; 10, 20, 50, 100, 200, 500 μM in RLMs) corresponded to CYP2C8/CYP2C-1; losartan (1, 2, 5, 10, 20, 50, 100, 200 μM in HLMs; 10, 20, 50, 100, 200, 500 and 1,000 μM in RLMs) corresponded to CYP2C9/CYP2C-2; mephenytoin (20, 50, 100, 200, 500 and 1,000 μM in HLMs; 5, 10, 20, 50, 100, 200, 500 and 1,000 μM in RLMs) corresponded to CYP2C19/CYP2C-3; and dextromethorphan (1, 2, 5, 10, 20, 50 and 100 μM in HLMs and RLMs) corresponded to CYP2D6/CYP2D. After 5.0 min of preincubation in the shaking water bath, the reaction was started with the addition of 1.0 mM NADPH. The incubated temperature at 37°C for 30 min. After the incubation, the enzyme reaction was stopped by cooling at −80°C, and 200 μL of acetonitrile and 20 μL of internal standard diazepam (200 ng/mL) were added for protein precipitation. The solution was fully vortexed and centrifuged at 13,000 × rpm for 10 min, and the supernatant was collected for data analysis by UPLC-MS/MS.
(§5) The inhibitory mechanism of the inhibitor on the enzyme was generally used by different concentrations of the inhibitor against different concentrations of the probe substrate. The concentrations of the inhibitor and the concentrations of probe substrates in the experiment were estimated based on IC50 and Km values, respectively.
(§6) In HLMs, the concentrations of the substrates midazolam, bupropion, amodiaquine, losartan, mephenytoin, and dextromethorphan were 1, 2, 4, 8 μM; 10, 20, 40, 80 μM; 0.8, 1.5, 3, 6 μM; 2, 4, 8, 16 μM; 20, 45, 90, 180 μM; 2.5, 5, 10, 20 μM, respectively. Corresponding to the concentration of vortioxetine were 2, 4, 9, 18 μM; 2, 4, 8, 16 μM; 4, 8, 15, 30 μM; 5, 10, 25, 50 μM; 0.6, 1.2, 2.5, 5 μM; 4.5, 9, 18, 36 μM, respectively.
as §2, with “States). The chromatographic separation was performed on a Waters ACQUITY UPLC BEH C18 column (2.1 × 50 mm, 1.7 μm, Waters Corp.) at 40°C.” for “States).”
as §3

CYP3A4 = CYP3A4 (Homo sapiens, UniProt P08684); assay: Reversible inhibition kinetics (Lineweaver-Burk), CYP3A4 in HLMs; conditions: midazolam
Chain of CYP3A4 (P08684 whole entry): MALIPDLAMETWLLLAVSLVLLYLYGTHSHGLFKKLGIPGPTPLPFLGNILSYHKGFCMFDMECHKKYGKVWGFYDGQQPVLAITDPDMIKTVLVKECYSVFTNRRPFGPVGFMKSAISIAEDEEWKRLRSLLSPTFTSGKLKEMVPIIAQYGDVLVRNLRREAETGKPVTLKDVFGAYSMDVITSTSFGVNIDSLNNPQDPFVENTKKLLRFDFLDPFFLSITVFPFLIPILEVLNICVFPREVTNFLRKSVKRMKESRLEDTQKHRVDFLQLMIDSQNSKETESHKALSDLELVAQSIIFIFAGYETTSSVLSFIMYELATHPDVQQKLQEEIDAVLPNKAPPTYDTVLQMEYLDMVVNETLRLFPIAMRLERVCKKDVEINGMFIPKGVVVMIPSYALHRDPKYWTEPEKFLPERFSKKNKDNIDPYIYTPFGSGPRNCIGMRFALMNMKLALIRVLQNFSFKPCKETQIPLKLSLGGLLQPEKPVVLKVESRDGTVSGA
Description: as §4, §5, §6
as §2, with “States). The chromatographic separation was performed on a Waters ACQUITY UPLC BEH C18 column (2.1 × 50 mm, 1.7 μm, Waters Corp.) at 40°C.” for “States).”
as §3

CYP2D6 [2] = target: T1, CYP2D6; assay: Reversible inhibition kinetics (Lineweaver-Burk), CYP2D6 in HLMs; conditions: dextromethorphan
Description: as §1, §2, §3

With `Cc1ccc(Sc2ccccc2N2CCNCC2)c(C)c1` [vortioxetine] the pIC50 (CYP2D6 [1]; HLMs 0.20 mg/mL, dextromethorphan at Km, 37°C, 30 min, read-out: IC50) was 4.75, the pIC50 (CYP2D6 [1]; inhibitory effect (strength judged by IC50), HLMs) was < 5.00 and the pKi (CYP2B6) was 5.07. For the same compound, the α (CYP2B6) was 2.70, the Inhibition type (CYP2B6; Lineweaver-Burk plot) was “mixed inhibition” and the αKi (CYP2B6; secondary plot of y-intercepts) was 23.04 µM. The pKi (CYP3A4) was 5.14, the α (CYP3A4) was 0.94 and the Inhibition type (CYP3A4; Lineweaver-Burk plot) was “noncompetitive inhibition”. For the same compound, the αKi (CYP3A4; secondary plot of y-intercepts) was 6.82 µM, the pKi (CYP2D6 [2]) was 5.03 and the Inhibition type (CYP2D6 [2]; Lineweaver-Burk plot) was “competitively inhibited; also recorded: competitive inhibition”.
